According to patent publication US8835115B2, “ABCB1 genotyping to predict microtubule-stabilizing-agent-induced toxicity” (The United States of America as represented by the …, priority 2006, dated 2014):
Marks after values point to notes of the source that are not given here.

Key:
[1] = Paclitaxel pharmacokinetics in plasma of treated subjects by ABCB1 genotype; conditions: for AUCp, area under the curve of total paclitaxel, Median (95% CI) / AUCu, area under the curve of unbound paclitaxel, Median (95% CI) / T > 0.05 μM, duration of total plasma concentration of paclitaxel exceeding 0.05 μM, Median (95% CI): 100 mg/m^2 iv infusion, first administration
Experimental: (§1) Twenty-six subjects were examined. There were 14 male subjects and 12 female subjects with a median age of 59.5 years (range: 42-72). The subjects were treated with weekly one- or three-hour paclitaxel infusions. All subjects had histologically proven, locally advanced or metastatic cancer, for which paclitaxel as monotherapy was a therapeutic option.
(§2) Paclitaxel (30 mg) formulated in a mixture of Cremophor and absolute:ethanol (1:1, vol/vol) (Bristol Myers Squibb, Munich, Germany) was diluted in 500 mL of 5% (weight/vol) dextrose in water and administered to subjects via a peripheral or central venous catheter using a motor-driven programmable infusion pump. Eligible subjects were randomized between a one hour and three hour infusion duration to receive a total of six weekly intravenous infusions of paclitaxel at a dose of 100 mg/m^2. After six weeks of therapy (defined as one cycle) response was evaluated bi-dimensionally, usually by computed tomography. Subjects with a stable disease, partial response or complete response after one cycle received a second cycle, provided toxic effects were not prohibitive.
Blood samples were obtained from the subjects described in Example 1 during the first paclitaxel administration at baseline and at serial time points during and after infusion. Concentrations of total paclitaxel in plasma were determined by a validated method based on reversed-phase high performance liquid chromatography with ultraviolet detection, while unbound paclitaxel plasma concentrations were determined by micro-equilibrium dialysis using a [G-^3H]paclitaxel tracer. Pertinent pharmacokinetic parameters were calculated by non-compartmental methods using WinNonlin® version 5.0 (Pharsight, Mountain View, Calif., USA).
All data are reported as median values with the associated 95% CI, unless specified otherwise. Interindividual pharmacokinetic variability was assessed as the coefficient of variation, and expressed as a percentage. The associations of the variant genotypes with individual pharmacokinetic parameters were evaluated statistically with the nonparametric Kruskal-Wallis test. All P values are two-tailed, and those less than or equal to 0.05 were considered to reflect statistically significant results.

[2] = test system: subjects with locally advanced or metastatic cancer; conditions: both, human, in vivo
Experimental: as §1, §2
All data are reported as median values with the associated 95% CI, unless specified otherwise.

[3] = test system: subjects with locally advanced or metastatic cancer; assay: Cumulative peripheral neuropathy (clinical score >3) during weekly paclitaxel therapy by ABCB1 genotype; format: in vivo, human; conditions: weekly paclitaxel 100 mg/m^2, 12 weeks
Text: Twenty-six subjects were examined.
Prior to therapy, and if possible after six and twelve weeks of therapy, these examinations were supplemented by the evaluation of the peripheral neuropathy score, clinical chemistries (serum creatinine, transaminases, alkaline phosphatase, and bilirubin), electrocardiogram analysis and performance status. For the assessment of neurotoxicity a standardized clinical peripheral neuropathy scoring system was used, which included questioning subjects' symptoms, requiring a clinical examination based on a tuning fork test, and an evaluation of strength and peripheral reflexes. This individual clinical score could range from 0 (best) to 12 (worst) points, and based on the inclusion criteria of this trial, peripheral neuropathy was defined as an event when the score exceeded a value of 3 for the first time. A score had to be obtained, at a minimum, prior to and after six and twelve weeks of therapy in order for subjects to be included.
The probability of development of a peripheral neuropathy during paclitaxel therapy as a function of time, according to various genotypes, was analyzed using the Kaplan-Meier method. Statistical significance of the differences between Kaplan-Meier curves was determined using an exact log rank test. […]

[4] = test system: men with androgen-independent prostate cancer; assay: Clinical grade of neutropenia in docetaxel-treated patients by ABCB1 genotype; format: in vivo, human
Experimental: (§3) ABCB1 genotypes were evaluated in patients from a trial involving 73 men with androgen-independent prostate cancer that were treated with either docetaxel alone or docetaxel in combination with thalidomide. Patients were administered docetaxel intravenously (30 mg/m2) over 1 hour every week for 3 consecutive weeks (n=23). Some patients additionally received 200 mg of thalidomide orally each day (n=50). Toxicity was defined by Cancer Therapy Evaluation Program/National Cancer Institute Common Toxicity Criteria (version 2.0) and patients were evaluated for symptoms of toxicity weekly.

[5] = test system: men with androgen-independent prostate cancer; assay: Docetaxel-induced peripheral neuropathy by ABCB1 2677 genotype; format: in vivo, human; conditions: docetaxel 30 mg/m2 iv weekly for 3 consecutive weeks
Experimental: as §3

[6] = ABCB1 1236C>T heterozygous (N=17)
[7] = ABCB1 1236C>T variant (N=4), range quoted instead of 95% CI
[8] = ABCB1 1236C>T wild-type (N=5), range quoted instead of 95% CI
[9] = ABCB1 2677G>T heterozygous (N=13)
[10] = ABCB1 2677G>T wild-type (N=2), range quoted instead of 95% CI
[11] = ABCB1 3435C>T heterozygous (N=14)
[12] = ABCB1 3435C>T wild-type (N=4), range quoted instead of 95% CI
[13] = genotype 2677TT + 3435TT, 11 patients in total
[14] = other ABCB1 genotypes, 39 patients in total
[15] = of the 15 subjects wild-type for ABCB1 2677G>T/A
[16] = subjects carrying at least one variant allele at ABCB1 2677

CC(=O)O[C@H]1C(=O)[C@@]2(C)[C@H]([C@H](OC(=O)c3ccccc3)[C@]3(O)C[C@H](OC(=O)[C@H](O)[C@@H](NC(=O)c4ccccc4)c4ccccc4)C(C)=C1C3(C)C)[C@]1(OC(C)=O)CO[C@@H]1C[C@@H]2O [paclitaxel, 5β,20-Epoxy-1,2α,4,7β,10β,13α-hexahydroxytax-11-en-9-one 4,10-diacetate 2-benzoate 13-ester with (2R,3S)—N-benzoyl-3-phenylisoserine]
association of ABCB1 genotypes with paclitaxel pharmacokinetic parameters ([1]; 26 subjects, ABCB1 1236C>T, 2677G>T, 3435C>T, Kruskal-Wallis test): none of the studied ABCB1 genotypes were associated with interindividual differences
AUCp, area under the curve of total paclitaxel, Median (95% CI) [1, 6]: 5264 (3879-6235) (ng/mL) × hr
AUCu, area under the curve of unbound paclitaxel, Median (95% CI) [1, 6]: 470 (445-519) (ng/mL) × hrs
T > 0.05 μM, duration of total plasma concentration of paclitaxel exceeding 0.05 μM, Median (95% CI) ([1]; ABCB1 1236C>T heterozygous (N=17, one patient without data)): 15.6 (9.3-19.3)* hours
AUCp, area under the curve of total paclitaxel, Median (95% CI) [1, 7]: 3547 (2309-5600) (ng/mL) × hr
AUCu, area under the curve of unbound paclitaxel, Median (95% CI) [1, 7]: 407 (362-522) (ng/mL) × hrs
T > 0.05 μM, duration of total plasma concentration of paclitaxel exceeding 0.05 μM, Median (95% CI) [1, 7]: 15.6 (8.8-24.9) hours
AUCp, area under the curve of total paclitaxel, Median (95% CI) [1, 8]: 4657 (2909-9916) (ng/mL) × hr
T > 0.05 μM, duration of total plasma concentration of paclitaxel exceeding 0.05 μM, Median (95% CI) [1, 8]: 20.3 (8.8-34.2) hours
AUCp, area under the curve of total paclitaxel, Median (95% CI) [1, 9]: 5146 (3776-7762) (ng/mL) × hr
AUCu, area under the curve of unbound paclitaxel, Median (95% CI) [1, 9]: 482 (371-641) (ng/mL) × hrs
T > 0.05 μM, duration of total plasma concentration of paclitaxel exceeding 0.05 μM, Median (95% CI) ([1]; ABCB1 2677G>T heterozygous (N=13, one patient without data)): 17.3 (9.6-20.7)* hours
AUCp, area under the curve of total paclitaxel, Median (95% CI) ([1]; ABCB1 2677G>T variant (N=11)): 4203 (2309-5600) (ng/mL) × hr
AUCu, area under the curve of unbound paclitaxel, Median (95% CI) ([1]; ABCB1 2677G>T variant (N=11)): 445 (362-516) (ng/mL) × hrs
T > 0.05 μM, duration of total plasma concentration of paclitaxel exceeding 0.05 μM, Median (95% CI) ([1]; ABCB1 2677G>T variant (N=11)): 12.6 (8.8-19.8) hours
AUCp, area under the curve of total paclitaxel, Median (95% CI) [1, 10]: 3348 (2909-3787) (ng/mL) × hr
AUCu, area under the curve of unbound paclitaxel, Median (95% CI) [1, 10]: 540 (507-572) (ng/mL) × hrs
T > 0.05 μM, duration of total plasma concentration of paclitaxel exceeding 0.05 μM, Median (95% CI) [1, 10]: 15.1 (8.8-21.3) hours
AUCp, area under the curve of total paclitaxel, Median (95% CI) [1, 11]: 5485 (3787-6344) (ng/mL) × hr
AUCu, area under the curve of unbound paclitaxel, Median (95% CI) [1, 11]: 512 (432-523) (ng/mL) × hrs
T > 0.05 μM, duration of total plasma concentration of paclitaxel exceeding 0.05 μM, Median (95% CI) ([1]; ABCB1 3435C>T heterozygous (N=14, one patient without data)): 19.8 (10.5-21.3)* hours
AUCp, area under the curve of total paclitaxel, Median (95% CI) ([1]; ABCB1 3435C>T variant (N=8)): 3656 (2259-5600) (ng/mL) × hr
AUCu, area under the curve of unbound paclitaxel, Median (95% CI) ([1]; ABCB1 3435C>T variant (N=8)): 448 (362-522) (ng/mL) × hrs
T > 0.05 μM, duration of total plasma concentration of paclitaxel exceeding 0.05 μM, Median (95% CI) ([1]; ABCB1 3435C>T variant (N=8)): 13.7 (8.7-18.9) hours
AUCp, area under the curve of total paclitaxel, Median (95% CI) [1, 12]: 4534 (2909-5146) (ng/mL) × hr
AUCu, area under the curve of unbound paclitaxel, Median (95% CI) [1, 12]: 420 (313-572) (ng/mL) × hrs
fold greater percent decrease in neutrophil count at nadir, double variant versus rest of the population [2]: approximately 1.5 fold
development of peripheral neuropathy during the observation period ([3]; four subjects wild-type for ABCB1 3435C>T (3435CC)): did not develop peripheral neuropathy
subjects who developed peripheral neuropathy ([3]; subjects carrying at least one variant allele at ABCB1 3435 (CT or TT)): 17 of 18

CC(=O)O[C@@]12CO[C@@H]1C[C@H](O)[C@@]1(C)C(=O)[C@H](O)C3=C(C)[C@@H](OC(=O)[C@H](O)[C@@H](NC(=O)OC(C)(C)C)c4ccccc4)C[C@@](O)([C@@H](OC(=O)c4ccccc4)[C@H]21)C3(C)C [docetaxel, (2R,3S)—N-carboxy-3-phenylisoserine,N-tert-butyl ester, 13-ester with 5β-20-epoxy-1,2α,4,7β,10β,13α-hexahydroxytax-11-en-9-one 4-acetate 2-benzoate, trihydrate]
# Patients with Clinical Grade of Neutropenia, Grade 0 [4, 13]: 8 patients
# Patients with Clinical Grade of Neutropenia, Grade 2 [4, 13]: 0 patients
# Patients with Clinical Grade of Neutropenia, Grade 3 [4, 13]: 3 patients
# Patients with Clinical Grade of Neutropenia, Grade 0 [4, 14]: 35 patients
# Patients with Clinical Grade of Neutropenia, Grade 2 [4, 14]: 3 patients
# Patients with Clinical Grade of Neutropenia, Grade 3 [4, 14]: 1 patients
subjects who developed peripheral neuropathy during the observation period [5, 15]: 11 subjects
subjects who did not develop peripheral neuropathy during the observation period [5, 15]: 4 subjects
subjects who developed peripheral neuropathy during the observation period [5, 16]: 32 of 35
subjects who did not develop peripheral neuropathy during the observation period [5, 16]: 3 of 35
